Measured values published in patent publication US6653286B1, “Gonadotropin releasing hormone antagonist” (Akzo Nobel NV, priority 1997, dated 2003).
Square brackets hold non-standard residues; d marks the D form. Peptide text beside a SMILES is read from it. d(hArg(Et2)) = CCN=C(NCC)NCCCC[C@@H](N)C(=O)O; hArg(Et2) = CCN=C(NCC)NCCCC[C@H](N)C(=O)O; dPhe(4-Cl) = N[C@H](Cc1ccc(Cl)cc1)C(=O)O; d2Nal = N[C@H](Cc1ccc2ccccc2c1)C(=O)O; d3Pal = N[C@H](Cc1cccnc1)C(=O)O

Assays:
pituitary-gonadal axis = conditions: cited from earlier work
premature LH surges = assay: phase II double-blind dose-finding study of ganirelix in women undergoing controlled ovarian hyperstimulation with recFSH; assay type: in vivo, human
Method: In order to establish the minimum effective dose of ganirelix to prevent premature LH surges in women undergoing COH with recombinant FSH, a double-blind dose-finding study was performed with 6 test doses ranging between 2 mg and 0.0625 mg ganirelix.
This study was a phase II, multi-centre, double-blind, randomized, dose-finding study to assess the efficacy of the GnRH-antagonist ganirelix to prevent premature LH surges in women undergoing controlled ovarian hyperstimulation with recFSH. The dosages of ganirelix are administered by one daily SC administration.
RecFSH treatment started on day 2 of the menstrual cycle (treatment day -5) by a once daily SC injection. From treatment day -5 through day -1 the dose of recFSH was fixed at 150 IU daily. After 5 days of recFSH treatment (day 7 of the menstrual cycle), ganirelix treatment was started by daily SC administration. Treatment continued until and including the last day of recFSH administration. During ganirelix treatment, the dose of recFSH was adjusted depending on the individual ovarian response as assessed by daily ultra sonographic scan (USS). As soon as at least 3 folicles ≧17 mm measured by USS were observed, hCG was administered for ovulation induction. About 30-36 hours thereafter oocyte pick-up was performed followed by in vitro fertilization (IVF) with or without intracytoplasmic sperm injection (ICSI). No more than 3 embryos were replaced.
If during ganirelix treatment a premature LH rise occurred e.g. at least one value of serum LH ≧15 IU/L according to the local LH immunoassay the investigator canceled the cycle or tried to rescue the cycle by giving hCG prematurely. In addition, the investigator notified the sponsor about the occurrence of the LH rise and the central laboratory was requested to confirm the LH rise was ≧10 IU/L according to the central LH immunoassay. Subsequently, all data of such subject with a premature LH rise were forwarded to an Independent Advisory Committee which was installed in order to advice on stopping a treatment arm in case of LH rises during ganirelix treatment.
During the study, some investigators informed the sponsor on one or more cases of extremely low serum LH and failing estradiol concentrations as well as follicle growth arrest after starting ganirelix treatment. For this reason the External Independent Advisory Committee was requested to review all clinical data available in order to evaluate whether these observations were dose related and whether, in their opinion, there was reason to stop one or more treatment arms.
In addition, the Independent Advisory Committee reviewed all rises of LH (≧15 IU/L according to the local LH immunoassay and ≧10 IU/L according to the central LH immunoassay) during ganirelix treatment. Based on their evaluation the External Committee advised the sponsor to stop the highest (2 mg) and lowest (0.0625 mg) treatment dose of ganirelix. The study was completed for the other dosage groups.
In total 333 subjects started recFSH treatment and 332 subjects started ganirelix treatment. Because of major protocol violation 3 subjects were excluded from the analysis. The final number of patients per dosing group are included in Table 1.

Compound: CCN=C(NCC)NCCCC[C@H](NC(=O)[C@H](CC(C)C)NC(=O)[C@@H](CCCCNC(=NCC)NCC)NC(=O)[C@H](Cc1ccc(O)cc1)NC(=O)[C@H](CO)NC(=O)[C@@H](Cc1cccnc1)NC(=O)[C@@H](Cc1ccc(Cl)cc1)NC(=O)[C@@H](Cc1ccc2ccccc2c1)NC(C)=O)C(=O)N1CCC[C@H]1C(=O)N[C@H](C)C(N)=O [ganirelix, N-Acetyl-3-(2-naphtyl)-D-alanyl-4-chloro-D-phenylalanyl-3-(3-pyridyl)-D-alanyl-L-seryl-L-tyrosyl-N^ω,N^ω-diethyl-D-homoarginyl-L-leucin-N^ω,N^ω-diethyl-Lhomoarginyl-L-propyl-D-alanylamide acetate] (Ac-[d2Nal][dPhe(4-Cl)][d3Pal]SY[d(hArg(Et2))]L[hArg(Et2)]P[dA]-NH2)
- suppression of the pituitary-gonadal axis (pituitary-gonadal axis; 1 mg or 2 mg daily SC for 8 consecutive days, reproductive age women): rapid, profound, reversible suppression
- maximal mean LH suppression (pituitary-gonadal axis; 8 h after the first injection, 1 mg or 2 mg daily SC): approximately 60%
- Median serum E2 (estradiol) at the day of hCG (= last day of ganirelix) (premature LH surges; 0.0625 mg daily SC): 1475 pg/mL
- Median serum LH at the day of hCG (= last day of ganirelix) (premature LH surges; 0.0625 mg daily SC): 3.56 IU/L
- Incidence of LH rises (premature LH surges; 0.0625 mg daily SC, N = 31, number of subjects (%)): 5 (16%)
- Serum ganirelix concentration versus dose (premature LH surges; 0.0625 mg to 2 mg daily SC): increased in a dose-proportional manner
- Median serum E2 (estradiol) at the day of hCG (= last day of ganirelix) (premature LH surges; 0.125 mg daily SC): 1130 pg/mL
- Median serum LH at the day of hCG (= last day of ganirelix) (premature LH surges; 0.125 mg daily SC): 2.46 IU/L
- Incidence of LH rises (premature LH surges; 0.125 mg daily SC, N = 65, number of subjects (%)): 6 (9.2%)
- Median serum E2 (estradiol) at the day of hCG (= last day of ganirelix) (premature LH surges; 0.25 mg daily SC): 1160 pg/mL
- Median serum LH at the day of hCG (= last day of ganirelix) (premature LH surges; 0.25 mg daily SC): 1.73 IU/L
- Incidence of LH rises (premature LH surges; 0.25 mg daily SC, N = 69, number of subjects (%)): 1 (1.4%)
- Median serum E2 (estradiol) at the day of hCG (= last day of ganirelix) (premature LH surges; 0.5 mg daily SC): 823 pg/mL
- Median serum LH at the day of hCG (= last day of ganirelix) (premature LH surges; 0.5 mg daily SC): 1.02 IU/L
- Incidence of LH rises (premature LH surges; 0.5 mg daily SC, N = 69, number of subjects): 0
- Median serum E2 (estradiol) at the day of hCG (= last day of ganirelix) (premature LH surges; 1 mg daily SC): 703 pg/mL
- Median serum LH at the day of hCG (= last day of ganirelix) (premature LH surges; 1 mg daily SC): 0.57 IU/L
- Incidence of LH rises (premature LH surges; 1 mg daily SC, N = 65, number of subjects): 0
- Median serum E2 (estradiol) at the day of hCG (= last day of ganirelix) (premature LH surges; 2 mg daily SC): 430 pg/mL
- Median serum LH at the day of hCG (= last day of ganirelix) (premature LH surges; 2 mg daily SC): 0.34 IU/L
- Incidence of LH rises (premature LH surges; 2 mg daily SC, N = 30, number of subjects): 0
- miscarriage rate (premature LH surges; 2 mg dose group): 13%
- vital pregnancy rate per attempt (premature LH surges; 2 mg dose group, per attempt (those who started hormonal treatment)): 3.8%
- vital pregnancy rate per transfer (premature LH surges; 2 mg dose group, per transfer (those who had embryo transfer)): 4.3%
